Test results from patent US20120065126A1, “Pharmaceutical Compositions Containing Antifungal Peptides” (BASF SE, priority 2009, published 2012).

How the values were obtained:
Malassezia furfur = assay: Incubation times between 5 minutes and 1 hour (CFU); assay type: cell-based
Method: The studies described hereinafter were conducted on the Malassezia furfur strain DSM 6170.
For this purpose, the concentrations 100 μM, 200 μM and 500 μM of P18 peptide and of zinc pyrithione as a control substance were used in the experiment. The experiments were conducted as follows:
The growth test was effected as follows: a shake culture containing M472 Pityrosporum medium was inoculated with M. furfur and incubated with shaking at 30° C. and 200 rpm overnight.
A 96-well microtiter plate was filled with 100 μl per well of M472 Pityrosporum medium and inoculated with M. furfur suspension from the overnight culture. The M. furfur suspension was adjusted at the start of the experiment to an optical density, measured at 600 nm, of 0.1.
The following growth was compared: • M. furfur suspension and addition of P18 peptide with a final concentration of 100 μM, plating after 5 minutes, 10 minutes, 20 minutes and 60 minutes • M. furfur suspension and addition of P18 peptide with a final concentration of 200 μM, plating after 5 minutes, 10 minutes, 20 minutes and 60 minutes • M. furfur suspension and addition of P18 peptide with a final concentration of 500 μM, plating after 5 minutes, 10 minutes, 20 minutes and 60 minutes • M. furfur suspension and addition of zinc pyrithione with a final concentration of 100 μM, plating after 5 minutes, 10 minutes, 20 minutes and 60 minutes • M. furfur suspension and addition of zinc pyrithione with a final concentration of 200 μM, plating after 5 minutes, 10 minutes, 20 minutes and 60 minutes • M. furfur suspension and addition of zinc pyrithione with a final concentration of 500 μM, plating after 5 minutes, 10 minutes, 20 minutes and 60 minutes
The microtiter plate was incubated with shaking at 30°.
After the incubation times specified, the colony forming units (CFU) were determined by streaking 50 μl of each of the suspensions and, after incubation over the course of 6 days, counting the colonies. The CFU was determined in order to rule out any influence of the biphasic medium, and also the growth form of M. furfur, on the optical density. The experiments were repeated independently of one another.

[1] = test system: Escherichia coli (Stratagene, BLR); assay: Short-term effect (CFU); assay type: cell-based
Method: For this purpose, the procedure was as follows.
LB growth medium (Becton, Dickinson and Company, Sparks, USA) […] make up to 1 liter, set pH 7
The growth test was effected as follows: 10 ml of LB medium were inoculated with E. coli and incubated at 37° C. and 200 rpm overnight.
1.5 ml reaction vessels were each filled with 1 ml of LB medium and inoculated with the E. coli suspension from the overnight culture. The E. coli suspension was adjusted at the start of the experiment to an optical density, measured at 600 nm, of 0.1. The concentration of the peptide solution in water or ZPT solution (zinc pyrithione, >96%, Sigma Aldrich) dissolved in DMSO was 2% (w/w).
The following growth was compared: • E. coli suspension and addition of P18 peptide with a final concentration in the 1.5 ml reaction vessel of 50 ppm after 5 minutes, 10 minutes, 20 minutes and 60 minutes • E. coli suspension and addition of P18 peptide with a final concentration in the 1.5 ml reaction vessel of 100 ppm after 5 minutes, 10 minutes, 20 minutes and 60 minutes • E. coli suspension and addition of P18 peptide with a final concentration in the 1.5 ml reaction vessel of 200 ppm after 5 minutes, 10 minutes, 20 minutes and 60 minutes • E. coli suspension and addition of P18 peptide with a final concentration in the 1.5 ml reaction vessel of 500 ppm after 5 minutes, 10 minutes, 20 minutes and 60 minutes • E. coli suspension and addition of P18 peptide with a final concentration in the 1.5 ml reaction vessel of 1000 ppm after 5 minutes, 10 minutes, 20 minutes and 60 minutes • E. coli suspension and addition of ZPT with a final concentration in the 1.5 ml reaction vessel of 50 ppm after 5 minutes, 10 minutes, 20 minutes and 60 minutes • E. coli suspension and addition of ZPT with a final concentration in the 1.5 ml reaction vessel of 100 ppm after 5 minutes, 10 minutes, 20 minutes and 60 minutes • E. coli suspension and addition of ZPT with a final concentration in the 1.5 ml reaction vessel of 200 ppm after 5 minutes, 10 minutes, 20 minutes and 60 minutes • E. coli suspension and addition of ZPT with a final concentration in the 1.5 ml reaction vessel of 500 ppm after 5 minutes, 10 minutes, 20 minutes and 60 minutes • E. coli suspension and addition of ZPT with a final concentration in the 1.5 ml reaction vessel of 1000 ppm after 5 minutes, 10 minutes, 20 minutes and 60 minutes
The 1.5 ml reaction vessels were incubated at room temperature.
After the incubation times specified, the colony forming units (CFU) were determined by streaking 1 μl of each of the suspensions diluted in 20 μl of LB medium and, after incubation for 2 days, counting the colonies.

Substance | Colony forming units after incubation time specified (Malassezia furfur; 100 μM, 5 minutes) | Colony forming units after incubation time specified (Malassezia furfur; 100 μM, 10 minutes) | Colony forming units after incubation time specified (Malassezia furfur; 100 μM, 20 minutes) | Colony forming units after incubation time specified (Malassezia furfur; 100 μM, 60 minutes) | Colony forming units after incubation time specified (Malassezia furfur; 200 μM, 5 minutes) | Colony forming units after incubation time specified (Malassezia furfur; 200 μM, 10 minutes) | Colony forming units after incubation time specified (Malassezia furfur; 200 μM, 20 minutes) | Colony forming units after incubation time specified (Malassezia furfur; 200 μM, 60 minutes) | Colony forming units after incubation time specified (Malassezia furfur; 500 μM, 5 minutes) | Colony forming units after incubation time specified (Malassezia furfur; 500 μM, 10 minutes) | Colony forming units after incubation time specified (Malassezia furfur; 500 μM, 20 minutes) | Colony forming units after incubation time specified (Malassezia furfur; 500 μM, 60 minutes) | Colony forming units after the incubation time specified ([1]; 50 ppm, 5 minutes) | Colony forming units after the incubation time specified ([1]; 50 ppm, 10 minutes) | Colony forming units after the incubation time specified ([1]; 50 ppm, 20 minutes) | Colony forming units after the incubation time specified ([1]; 50 ppm, 60 minutes) | Colony forming units after the incubation time specified ([1]; 100 ppm, 5 minutes) | Colony forming units after the incubation time specified ([1]; 100 ppm, 10 minutes) | Colony forming units after the incubation time specified ([1]; 100 ppm, 20 minutes) | Colony forming units after the incubation time specified ([1]; 100 ppm, 60 minutes) | further results
H-KWKLFKKIPKFLHLAKKF-NH2 [P18, H-KWKLFKKIPKFLHLAKKF-NH2] | >1000 CFU | >1000 CFU | 604 CFU | 149 ± 60 CFU | >1000 CFU | >1000 CFU | >1000 CFU | 52 ± 16 CFU | >1000 CFU | 398 ± 290 CFU | 26 ± 6 CFU | 1 ± 1 CFU | 2000 ± 0 CFU | 2000 ± 0 CFU | 2000 ± 0 CFU | 1208 ± 532 CFU | 2000 ± 0 CFU | 2000 ± 0 CFU | 1836 ± 108 CFU | 726 ± 88 CFU | Colony forming units after the incubation time specified ([1]; 200 ppm, 5 minutes): 2000 ± 0 CFU; Colony forming units after the incubation time specified ([1]; 200 ppm, 10 minutes): 2000 ± 0 CFU; Colony forming units after the incubation time specified ([1]; 200 ppm, 20 minutes): 1310 ± 144 CFU; Colony forming units after the incubation time specified ([1]; 200 ppm, 60 minutes): 192 ± 56 CFU; Colony forming units after the incubation time specified ([1]; 500 ppm, 5 minutes): 2000 ± 0 CFU; Colony forming units after the incubation time specified ([1]; 500 ppm, 10 minutes): 2000 ± 0 CFU; Colony forming units after the incubation time specified ([1]; 500 ppm, 20 minutes): 816 ± 96 CFU; Colony forming units after the incubation time specified ([1]; 500 ppm, 60 minutes): 24 ± 16 CFU; Colony forming units after the incubation time specified ([1]; 1000 ppm, 5 minutes): 2000 ± 0 CFU; Colony forming units after the incubation time specified ([1]; 1000 ppm, 10 minutes): 2000 ± 0 CFU; Colony forming units after the incubation time specified ([1]; 1000 ppm, 20 minutes): 369 ± 383 CFU; Colony forming units after the incubation time specified ([1]; 1000 ppm, 60 minutes): 6 ± 2 CFU
zinc pyrithione [ZPT] | >1000 CFU | >1000 CFU | >1000 CFU | >1000 CFU | >1000 CFU | >1000 CFU | >1000 CFU | >1000 CFU | >1000 CFU | >1000 CFU | >1000 CFU | >1000 CFU | 2000 ± 0 CFU | 2000 ± 0 CFU | 2000 ± 0 CFU | 2000 ± 0 CFU | 2000 ± 0 CFU | 2000 ± 0 CFU | 2000 ± 0 CFU | 2000 ± 0 CFU | Inhibition in words ([1]; 50-1000 ppm, up to 60 minutes): no significant inhibition; Colony forming units after the incubation time specified ([1]; 200 ppm, 5 minutes): 2000 ± 0 CFU; Colony forming units after the incubation time specified ([1]; 200 ppm, 10 minutes): 2000 ± 0 CFU; Colony forming units after the incubation time specified ([1]; 200 ppm, 20 minutes): 2000 ± 0 CFU; Colony forming units after the incubation time specified ([1]; 200 ppm, 60 minutes): 2000 ± 0 CFU; Colony forming units after the incubation time specified ([1]; 500 ppm, 5 minutes): 2000 ± 0 CFU; Colony forming units after the incubation time specified ([1]; 500 ppm, 10 minutes): 2000 ± 0 CFU; Colony forming units after the incubation time specified ([1]; 500 ppm, 20 minutes): 2000 ± 0 CFU; Colony forming units after the incubation time specified ([1]; 500 ppm, 60 minutes): 2000 ± 0 CFU; Colony forming units after the incubation time specified ([1]; 1000 ppm, 5 minutes): 2000 ± 0 CFU; Colony forming units after the incubation time specified ([1]; 1000 ppm, 10 minutes): 2000 ± 0 CFU; Colony forming units after the incubation time specified ([1]; 1000 ppm, 20 minutes): 2000 ± 0 CFU; Colony forming units after the incubation time specified ([1]; 1000 ppm, 60 minutes): 2000 ± 0 CFU
